Laboratory results published in the supplement of paper PMC13380429.

Assays:
Settings in all cases: 72 h
Calu-3 [1] = experiment: relative viability EC50 (midpoint between 100% and the lowest measured viability); higher = less toxic
HepG2 [2] = experiment: as above
U2OS [3] = experiment: as above
Caco-2 [4] = experiment: as above
Vero E6 [5] = experiment: as above
Calu-3 [6] = experiment: drug sensitivity score (DSS) for viability; higher = more toxic; extreme values may be limits of the assay
HepG2 [7] = experiment: as above
U2OS [8] = experiment: as above
Caco-2 [9] = experiment: as above
Vero E6 [10] = experiment: as above
Calu-3 [11] = experiment: cell viability relative to DMSO; higher = less toxic
HepG2 [12] = experiment: as above
U2OS [13] = experiment: as above
Caco-2 [14] = experiment: as above
Vero E6 [15] = experiment: as above

| SMILES | relative viability EC50 (Calu-3 [1]) | relative viability EC50 (HepG2 [2]) | relative viability EC50 (U2OS [3]) | relative viability EC50 (Caco-2 [4]) | relative viability EC50 (Vero E6 [5]) | drug sensitivity score (Calu-3 [6]) | drug sensitivity score (HepG2 [7]) | drug sensitivity score (U2OS [8]) | drug sensitivity score (Caco-2 [9]) | drug sensitivity score (Vero E6 [10]) | cell viability (Calu-3 [11]; 1 nM) | cell viability (Calu-3 [11]; 10 nM) | cell viability (Calu-3 [11]; 100 nM) | cell viability (Calu-3 [11]; 1000 nM) | cell viability (Calu-3 [11]; 10000 nM) | cell viability (HepG2 [12]; 1 nM) | cell viability (HepG2 [12]; 10 nM) | cell viability (HepG2 [12]; 100 nM) | cell viability (HepG2 [12]; 1000 nM) | cell viability (HepG2 [12]; 10000 nM) | cell viability (U2OS [13]; 1 nM) | cell viability (U2OS [13]; 10 nM) | cell viability (U2OS [13]; 100 nM) | cell viability (U2OS [13]; 1000 nM) | cell viability (U2OS [13]; 10000 nM) | cell viability (Caco-2 [14]; 1 nM) | cell viability (Caco-2 [14]; 10 nM) | cell viability (Caco-2 [14]; 100 nM) | cell viability (Caco-2 [14]; 1000 nM) | cell viability (Caco-2 [14]; 10000 nM) | cell viability (Vero E6 [15]; 1 nM) | cell viability (Vero E6 [15]; 10 nM) | cell viability (Vero E6 [15]; 100 nM) | cell viability (Vero E6 [15]; 1000 nM) | cell viability (Vero E6 [15]; 10000 nM) |
| --- | --- | --- | --- | --- | --- | --- | --- | --- | --- | --- | --- | --- | --- | --- | --- | --- | --- | --- | --- | --- | --- | --- | --- | --- | --- | --- | --- | --- | --- | --- | --- | --- | --- | --- | --- |
| C[C@H]1CCc2c(cc(Br)c(F)c2Br)N1C=O [CE3F4] | > 10 µM | > 10 µM | > 10 µM | > 10 µM | > 10 µM | 0.2 | 0 | 0 | 0 | 0 | 105% | 102% | 89.6% | 93.7% | 90% | 110% | 99.2% | 113% | 100% | 103% | 98.3% | 101% | 99.6% | 102% | 96.1% | 105% | 99.9% | 91.9% | 104% | 88.8% | 103% | 101% | 98.2% | 93.8% | 102% |
| CC(C)(C)NC(=O)N[C@H](C(=O)N1C[C@H]2[C@@H]([C@H]1C(=O)NC(CC1CCC1)C(=O)C(N)=O)C2(C)C)C(C)(C)C (some centres not stated) [Boceprevir] | > 10 µM | > 10 µM | > 10 µM | > 10 µM | > 10 µM | 0 | 0 | 0 | 0 | 0 | 102% | 95.1% | 95.7% | 100% | 102% | 102% | 102% | 95.6% | 100% | 105% | 102% | 93.7% | 100% | 96.1% | 91.6% | 103% | 94.4% | 108% | 92.5% | 105% | 102% | 100% | 102% | 92.7% | 99.9% |
| COCCc1ccc(OCC(O)CNC(C)C)cc1 (configuration not stated) [metoprolol] | > 10 µM | > 10 µM | > 10 µM | > 10 µM | > 10 µM | 0 | 0 | 0 | 0 | 0 | 93.1% | 106% | 93.2% | 101% | 98.7% | 112% | 79.4% | 122% | 79.7% | 93.6% | 103% | 109% | 99% | 108% | 104% | 102% | 136% | 91.8% | 110% | 94.4% | 97.7% | 97.1% | 96.1% | 93.6% | 96.2% |
| CC[N+](CC)(CC(=O)Nc1c(C)cccc1C)Cc1ccccc1 [denatonium-benzoate] | > 10 µM | > 10 µM | > 10 µM | > 10 µM | > 10 µM | 0 | 0 | 0 | 0 | 0 | 96.7% | 101% | 98.3% | 92.8% | 105% | 100% | 99.3% | 108% | 100% | 116% | 91% | 96.1% | 95.9% | 103% | 104% | 100% | 102% | 99.8% | 110% | 112% | 95.1% | 99.2% | 95.3% | 88.9% | 111% |
| CC1(C)O[C@@H]2C[C@H]3[C@@H]4CCC5=CC(=O)C=C[C@]5(C)[C@@]4(F)[C@@H](O)C[C@]3(C)[C@]2(C(=O)CO)O1 [TRIAMCINOLONE ACETONIDE] | > 10 µM | > 10 µM | > 10 µM | > 10 µM | > 10 µM | 0 | 0 | 0 | 0 | 0 | 98.4% | 95.4% | 87.6% | 103% | 106% | 103% | 91.3% | 94.6% | 101% | 93% | 99.4% | 95.7% | 94.6% | 90.7% | 95.2% | 94.2% | 96.2% | 96.8% | 89% | 93.1% | 102% | 99% | 95.3% | 97.4% | 100% |
| CC(C)[C@@H](CS(=O)(=O)C(C)C)N1C(=O)[C@@](C)(CC(=O)O)C[C@H](c2cccc(Cl)c2)[C@H]1c1ccc(Cl)cc1 [AMG-232] | > 10 µM | 0.266 µM | – | > 10 µM | 0.568 µM | 0 | 14 | 5.2 | 0.7 | 8.1 | 99.9% | 92.4% | 93.1% | 96.7% | 93.8% | 102% | 96% | 85.9% | 33.5% | 24.4% | 98.5% | 95.5% | 97.4% | 71.2% | 65.8% | 99.6% | 97.7% | 94.2% | 91.3% | 82.9% | 96.8% | 99.1% | 98.4% | 58.1% | 44.6% |
| NC(N)=Nc1nc(CSCC/C(N)=N/S(N)(=O)=O)cs1 [Famotidine] | > 10 µM | > 10 µM | > 10 µM | > 10 µM | > 10 µM | 0 | 0 | 0 | 0 | 0 | 84% | 106% | 89.8% | 106% | 90.1% | 101% | 97.4% | 87.9% | 100% | 85.4% | 98% | 104% | 98.6% | 108% | 97.5% | 101% | 101% | 93.9% | 96.8% | 96.8% | 106% | 105% | 95.2% | 102% | 96.7% |
| Cc1cccc(NC(=O)c2ccc(C(F)(F)F)cc2C(=O)O)n1 | > 10 µM | > 10 µM | > 10 µM | > 10 µM | > 10 µM | 0 | 0 | 0 | 0 | 0 | 103% | 95% | 94.5% | 106% | 98.6% | 103% | 96.8% | 105% | 108% | 102% | 100% | 102% | 97% | 97% | 104% | 99.5% | 101% | 101% | 98% | 105% | 99.7% | 99.8% | 105% | 104% | 106% |
| C=C1C[C@]23C[C@@]1(O)CC[C@H]2[C@@]12C=C[C@H](O)[C@@](C)(C(=O)O1)[C@H]2[C@@H]3C(=O)O [MD-920] | > 10 µM | > 10 µM | > 10 µM | > 10 µM | > 10 µM | 0 | 0 | 0 | 0 | 0 | 96.1% | 106% | 108% | 105% | 91.1% | 95.5% | 107% | 94.2% | 99% | 104% | 95.1% | 96.1% | 104% | 101% | 97% | 99.9% | 85.4% | 104% | 95.1% | 90.3% | 100% | 94.6% | 86.7% | 102% | 116% |
| O=S1(=O)N[C@H]2CCCN2c2ccccc21 | > 10 µM | > 10 µM | – | > 10 µM | > 10 µM | 0 | 0.1 | – | 0 | 0 | 93.3% | 106% | 108% | 104% | 101% | 96.8% | 99.3% | 89.7% | 104% | 86.7% | – | – | – | – | – | 100% | 96.7% | 88.4% | 104% | 113% | 101% | 100% | 98% | 89.5% | 96.7% |
| CCN(CC)CCOCCOC(=O)C(CC)(CC)c1ccccc1 [oxelaidin] | > 10 µM | > 10 µM | > 10 µM | > 10 µM | > 10 µM | 0 | 0.3 | 0 | 0 | 0 | 99% | 95.8% | 94.8% | 94.5% | 99.7% | 104% | 103% | 104% | 95.6% | 87.1% | 96.9% | 92.6% | 94.3% | 107% | 101% | 106% | 85.5% | 95.9% | 107% | 97.3% | 94.2% | 95.9% | 102% | 99.9% | 104% |
| OCC[N+]12CN3CN(CN(C3)C1)C2 [Y-11] | > 10 µM | > 10 µM | – | > 10 µM | > 10 µM | 0 | 0 | – | 0 | 0 | 97.6% | 90.1% | 98% | 102% | 99.1% | 97.6% | 90.5% | 102% | 102% | 110% | – | – | – | – | – | 102% | 108% | 97.2% | 101% | 99.2% | 102% | 99.1% | 106% | 96.2% | 100% |
| O=c1[nH]c(CCl)nc2sc3c(c12)CCCC3 | > 10 µM | > 10 µM | > 10 µM | – | > 10 µM | 0 | 0.2 | 0.5 | 1.4 | 0 | 116% | 98.1% | 97.9% | 92% | 109% | 92.7% | 94.5% | 96.2% | 107% | 81.8% | 103% | 94.5% | 98.8% | 100% | 80.6% | 96.8% | 99.1% | 98.3% | 98.8% | 71% | 99.4% | 101% | 95.8% | 96.4% | 92.9% |
| CC(C)(C)NC(=O)N[C@H](C(=O)N1C[C@H]2[C@@H]([C@H]1C(=O)NC(CC1CCC1)C(=O)C(N)=O)C2(C)C)C(C)(C)C (some centres not stated) [boceprevir] | > 10 µM | > 10 µM | > 10 µM | – | > 10 µM | 0 | 0 | 0 | – | 0 | 93.7% | 101% | 101% | 95.2% | 105% | 98.2% | 96.9% | 109% | 93.7% | 95.7% | 102% | 98.6% | 99.6% | 96.4% | 97.5% | – | – | – | – | – | 100% | 102% | 93.9% | 96.1% | 93.9% |
